Laboratory results reported in patent US12134769B2, “MicroRNA-198 as a tumor suppressor in ovarian cancer” (Baylor College of Medicine, priority 2011, dated 2024).

Tested on: MIA-MSLN cells
Test: Migration, modified Boyden chamber assay
Type: cell-based, human
Procedure: Cell migration was determined with a modified Boyden chamber assay as described previously (Li et al., 2008). For invasion assays, Matrigel basement membrane matrix (BD Biosciences) was used by adding 100 ul of 1 mg/ml Matrigel to the migration chamber inserts prior to plating of the cells (Li et al., 2008, Bharadwaj).

miR-198: microRNA-198, SEQ ID NO: 1 gguccagaggggagauagg; used as transfected precursors (Ambion) or Lenti-miR stable overexpression (GGUCCAGAGGGGAGAUAGG; listed as RNA, chemistry not given here; listed as Homo sapiens)
migration reduced (36 h after transient miR-198 transfection): 44%
migration reduced (stable miR-198 overexpression, after 48 h): ~40%
